Here are results for one compound from patent US20100081642A1, “CB-1 RECEPTOR MODULATOR PHARMACEUTICAL FORMULATIONS” (priority 2008, published 2010).

Molecules are shown by their SMILES. ≈ marks a conversion by molar mass, not a printed value. Read-outs that look alike come from different tables or passages of the source. Where only a bound is given, the exact number is not on record here.

The nature of this data set: Solubility of Compound I in various vehicles (high throughput screening, HPLC assay of solution phase). Type of data set: physicochemical. As for the experimental part: Solubility of Compound 1 was determined using a high throughput screening method.
The above solubilities were determined by adding Compound I to the test system and stirred. Following an equilibrium time, the material in the solution phase is assayed by HPLC to determine solubility.

For the compound `CC(C)(F)[C@H](c1cc(F)cc(C#N)c1)C1CN([C@@H](c2ccc(Cl)cc2)c2cccc(-c3n[nH]c(=O)o3)c2)C1` [Compound I, 3-[(1S)-1-(1-{(S)-(4-chlorophenyl)[3-(5-oxo-4,5-dihydro-1,3,4-oxadiazol-2-yl)phenyl]methyl}azetidin-3-yl)-2-fluoro-2-methylpropyl]-5-fluorobenzonitrile], the solubility reads like this: (aqueous with cosolvent or surfactant or cyclodextrin, thermodynamic from solid, vehicle CREMOPHOR EL (aqueous solution), free base, read-out: Solubility in vehicle at ambient temperature) less than 40 µg/mL; (aqueous with cosolvent or surfactant or cyclodextrin, thermodynamic from solid, vehicle Methyl Cellulose (aqueous solution), free base, read-out: Solubility in vehicle at ambient temperature) less than 40 µg/mL; (aqueous with cosolvent or surfactant or cyclodextrin, thermodynamic from solid, vehicle Methyl Cellulose with SDS (aqueous solution), free base, read-out: Solubility in vehicle at ambient temperature) less than 40 µg/mL; (aqueous with cosolvent or surfactant or cyclodextrin, thermodynamic from solid, vehicle POLYSORBATE 80 (aqueous solution), free base, read-out: Solubility in vehicle at ambient temperature) less than 40 µg/mL; (aqueous with cosolvent or surfactant or cyclodextrin, thermodynamic from solid, vehicle Sodium lauryl sulfate (aqueous solution), free base, read-out: Solubility in vehicle at ambient temperature) less than 40 µg/mL; (aqueous with cosolvent or surfactant or cyclodextrin, thermodynamic from solid, vehicle Vitamin E TPGS (aqueous solution), free base, read-out: Solubility in vehicle at ambient temperature) less than 40 µg/mL. The solubility is, setting by setting: (fassgf or other biorelevant, thermodynamic from solid, vehicle Simulated gastric fluids (fasted and fed), free base, read-out: Solubility in vehicle at ambient temperature) less than 40 µg/mL; (water, statement in description, read-out: solubility in water) 1 µg/mL (≈ 1.87 µM). Moreover, the “Solubility in vehicle at ambient temperature” value (from here on “Solubility in vehicle”) (vehicle 0.01N HCl/34 mMNaCl, free base) is given as 0.007 mg/g; the “Solubility in vehicle” value (vehicle IMWITOR 742, free base) was 318 mg/g; the “Solubility in vehicle” value (vehicle IMWITOR:TWEEN (1:1), free base) was more than 240 mg/g; the “Solubility in vehicle” value (vehicle MIGLYOL 812, free base) is listed as 86 mg/g; the “Solubility in vehicle” value (vehicle Water, free base) is 0.001 mg/g.
